Laboratory results published in patent US6468971B1, “Maintaining kidney function during surgery or trauma” (Board of Supervisors of Louisiana State University and …, priority 1998, dated 2002).
Entries after “also recorded” stand apart in the source; their conditions may differ.

Columns and labels:
[1] = system: rats during surgery under isoflurane anesthesia; design: species or system Sprague-Dawley rat; conditions: rat, in vivo
conscious humans = conditions: cited from earlier work
[2] = system: human patients during general anesthesia and surgery; conditions: administered 90 minutes before anesthesia; cited from earlier work
[3] = system: isoflurane-anesthetized rats under surgery; assay: Renal response to drug given after start of surgery and isoflurane anesthesia; assay type: in vivo, Sprague-Dawley rat
conscious rats [4] = assay: E-2078 effect on urine flow and sodium excretion in conscious rats (Salas et al.); assay type: in vivo, rat; conditions: 50 μg i.v., after 15-30 minutes
conscious rats [5] = conditions: 50 μg i.v., cited from earlier work
[6] = system: rats anesthetized with pentobarbital; conditions: 50 μg i.v.; cited from earlier work
[7] = conscious healthy humans (Rimoy 1991)
[8] = intravenous bolus injection during isoflurane anesthesia and surgery

CN1c2ccccc2C(c2ccccc2F)=NCC1CNC(=O)c1ccsc1 (single isomer, unassigned; (+)) [tifluadom, (+)-(1-methyl-2,3-thienyl-carboxyl)-aminomethyl-5-(2-fluorophenyl)H-2,3-dihydro-1,4-benzodiazepine]
effect on urine flow rate during surgery and isoflurane anesthesia [1]: remained steady (time 10) and consistently increased over time (time 20-90) until a plateau was reached (time 100-120)
urinary potassium excretion [1]: remained low
urinary sodium excretion [1]: remained low
urine flow rate [1]: 20 µL/min
urine osmolality [1]: remained low

C=C1CC2(CCC(N3CCCC3)C(N(C)C(=O)Cc3ccc(Cl)c(Cl)c3)C2)OC1=O (stereo not shown) [U-62,066E, 3,4-dichloro-N-methyl-N-(3-methylene-2-oxo-8-(1-pyrrolidinyl)-1-oxaspiro(4,5)dec-7-yl)-benzeneacetamide]
urinary potassium excretion [1]: gradual increase; also recorded: significant and steady increase toward a new plateau level
urinary sodium excretion [1]: remained low throughout the duration of the experiment
urine flow rate [1]: remained elevated throughout the 6 hours of the study
central nervous system effects (conscious humans; 3.2 μg/kg dose): sedation, significant dysphoria, and no significant euphoria
diuretic response (conscious humans; 5 μg/kg intramuscular): pronounced diuretic response
sodium, potassium, or chloride excretion (conscious humans; 2 to 6 μg/kg intramuscular): without increases in sodium, potassium, or chloride excretion
water diuresis (conscious humans; 2 to 6 μg/kg intramuscular): induced water diuresis
urine osmolality (conscious humans; [7]): decreased urine osmolality
urine output (conscious humans; [7]): significantly increased urine output
diuretic potency relative to U-50,488H (conscious humans; in vivo): about twice as potent a diuretic as U-50,488H

Clc1cccc(Cl)c1N=C1NCCN1 [clonidine]
diuresis [2]: significant diuresis during surgery
losses of sodium and potassium [2]: substantial losses of sodium and potassium
mean arterial pressure and heart rate [2]: substantial decrease in mean arterial pressure and heart rate

NS(=O)(=O)c1cc(C(=O)O)c(NCc2ccco2)cc1Cl [furosemide]
effect on urine flow rate ([3]; continuous intravenous infusion after start of surgery and isoflurane (U-50,488H 100 μg/kg/min)): returned to the impaired pre-drug levels
urine flow rate, peak ([3]; continuous intravenous infusion after start of surgery and isoflurane (U-50,488H 100 μg/kg/min), saline infusion 55 μl/min): about 200 μl/min
course of urine flow rate after the peak [3, 8]: declined rapidly
urine flow rate, peak [3, 8]: about 300 μl/min

OC[C@@H](O)[C@@H](O)[C@H](O)[C@H](O)CO [mannitol]
course of urine flow rate after the peak [3, 8]: not maintained and declined to the impaired levels observed before drug administration
urinary potassium excretion [3, 8]: increase in urinary sodium and potassium excretion
urinary sodium excretion [3, 8]: increase in urinary sodium and potassium excretion
urine flow rate, peak [3, 8]: up to 135 μl/min

(N-methyl-Tyr^1,N-methyl-Arg^7-D-Leu^8)-dynorphin-A(1-8) ethylamide [E-2078]
increase over the baseline flow rate (conscious rats [4]): 78 µL/min
urine flow rate (conscious rats [5]; after 15-30 minutes): 118 ± 22 µL/min
urinary sodium excretion (conscious rats [5]; at 30-45 min): 1.4±0.4 μEq/min
urinary sodium excretion [6]: 0.3±0.1 μEq/min
urine flow rate [6]: 6.3 ± 1.0 µL/min
